From PMC3660081 (Annals of Oncology, 2013)
Entries after “also recorded” stand apart in the source; their conditions may differ.

Legend:
[1] = Drug-related treatment-emergent adverse events; assay type: in vivo, human; details: for Administration interrupted (omitted) / Dose reduction due to adverse events: % of administered cycles
[2] = tested on: colorectal cancer after progression on standard therapy; details: versus best supportive care 5.0 months; cited from earlier work
[3] = tested on: heavily pretreated colorectal cancer; details: single-agent regorafenib; cited from earlier work
[4] = cited from earlier work
UGT1A1 = details: cited from earlier work
UGT1A9 = details: cited from earlier work
[5] = Pharmacokinetics of chemotherapy components before; details: for Effect of regorafenib on pharmacokinetics/exposure, in words: cycle 2 versus cycle 1; for Cmax in cycle 2 versus cycle 1, in words: following regorafenib dosing
[6] = Cycle 1 day 1, before regorafenib dosing
[7] = Cycle 2 day 1, after regorafenib dosing
[8] = after versus before regorafenib dosing

In the case of `CNC(=O)c1cc(Oc2ccc(NC(=O)Nc3ccc(Cl)c(C(F)(F)F)c3)c(F)c2)ccn1` [Regorafenib], the “Tolerability in combination with chemotherapy (FOLFOX or FOLFIRI), in words” value ([1]; regorafenib 160 mg once daily days 4–10 and 18–24) is listed as “acceptable tolerability”, the “Overall survival (OS)” value [2] is listed as 6.4 months and the Stable disease [3] is listed as 19 of 27. The Half-life [4] was 25 h, the “Inhibition of UGT1A1, in words” value (UGT1A1) was “strong inhibitor” and the “Inhibition of UGT1A9, in words” value (UGT1A9) was “strong inhibitor”.
For `O=c1[nH]cc(F)c(=O)[nH]1` [5-fluorouracil], the “Administration interrupted (omitted)” value [1] was 8%, the “Dose reduction due to adverse events” value [1] was 18% and the “Cmax ratio (90% CI) Cycle 2/Cycle 1” value ([5]; FOLFIRI regimen) was 0.92 (0.06–13.9). The “t½, geometric mean” value ([5]; FOLFIRI regimen, Cycle 1, before regorafenib dosing) was 0.2 H, the “AUC ratio (90% CI) Cycle 2/Cycle 1” value ([5]; FOLFOX regimen) was 1.06 (0.69–1.64) and the “Cmax ratio (90% CI) Cycle 2/Cycle 1” value ([5]; FOLFOX regimen) was 0.89 (0.50–1.61). The “t½, geometric mean” value ([5]; FOLFOX regimen, Cycle 1, before regorafenib dosing) was 0.4 H, the “t½, geometric mean” value ([5]; FOLFOX regimen, Cycle 2, after regorafenib dosing) was 2.4 H and the “Effect of regorafenib on pharmacokinetics/exposure, in words” value [5] was “no significant effect”.
With `CCc1c2c(nc3ccc(O)cc13)-c1cc3c(c(=O)n1C2)COC(=O)[C@]3(O)CC` [SN-38] the “AUC, geometric mean” value [5, 6] was 400 ng·h/mL, the “t½, geometric mean” value [5, 6] was 16.8 h and the “AUC, geometric mean” value [5, 7] was 500 ng·h/mL. The “t½, geometric mean” value [5, 7] was 19.3 h, the “AUC ratio (90% CI) Cycle 2/Cycle 1” value [5, 8] was 1.44 and the “Cmax ratio (90% CI) Cycle 2/Cycle 1” value [5, 8] was 0.91 (0.55–1.50). The “Effect of regorafenib on pharmacokinetics/exposure, in words” value [5] was “increased exposure; also recorded: increased significantly” and the “Cmax in cycle 2 versus cycle 1, in words” value [5] was “unchanged”.
For `O=C1[O][Pt]2([NH][C@@H]3CCCC[C@H]3[NH]2)[O]C1=O` [Oxaliplatin, oxaliplatin], the “Administration interrupted (omitted)” value [1] was 11%, the “Dose reduction due to adverse events” value [1] was 11% and the “Effect of regorafenib on pharmacokinetics/exposure, in words” value [5] was “no significant effect”.
For `CCc1c2c(nc3ccc(OC(=O)N4CCC(N5CCCCC5)CC4)cc13)-c1cc3c(c(=O)n1C2)COC(=O)[C@]3(O)CC` [Irinotecan, irinotecan], the “Administration interrupted (omitted)” value [1] was 5%, the “Dose reduction due to adverse events” value [1] was 12% and the “AUC ratio (90% CI) Cycle 2/Cycle 1” value [5, 8] was 1.28. For the same compound, the “Cmax ratio (90% CI) Cycle 2/Cycle 1” value [5, 8] was 1.22 (0.80–1.85), the “Effect of regorafenib on pharmacokinetics/exposure, in words” value [5] was “increased exposure; also recorded: increased significantly” and the “Cmax in cycle 2 versus cycle 1, in words” value [5] was “only slightly increased”. The AUC ([5]; human, in vivo, geometric mean, Cycle 1 day 1, before regorafenib dosing) was 10700 ng·h/mL, the AUC ([5]; human, in vivo, geometric mean, Cycle 2 day 1, after regorafenib dosing) was 13800 ng·h/mL and the Cmax ([5]; human, in vivo, Cmax, geometric mean, Cycle 1 day 1, before regorafenib dosing) was 1900 ng/mL.
For `CNC(=O)c1cc(Oc2ccc(NC(=O)Nc3ccc(Cl)c(C(F)(F)F)c3)c(F)c2)cc[n+]1[O-]` [M2], the Half-life [4] is given as 26 to 28 h.
For `NC(=O)c1cc(Oc2ccc(NC(=O)Nc3ccc(Cl)c(C(F)(F)F)c3)c(F)c2)cc[n+]1[O-]` [M5], the Half-life [4] is given as 51 to 64 h.
